This note sets out measurements from patent US11168102B1, “Bicyclic heteroaryl compounds and uses thereof” (Revolution Medicines, Inc., priority 2019, dated 2021).

pIC50: −log10 of the molar value.

One test concerns cellular pERK in PC-9 cells (EGFR Ex19Del). Description: Potency assay: pERK (AlphaLISA SureFire Ultra p-ERK1/2) in PC-9 cells. In kind it is cell-based. Conditions: Homo sapiens, PC-9, 1 h, PC-9 cells (EGFR Ex19Del), 1 hour incubation, AlphaLISA SureFire Ultra p-ERK1/2; read-out: SOS1 pERK IC50.
For `COC1(c2cc3c(N[C@H](C)c4cccc(C(F)F)c4F)ncnc3n(C)c2=O)CC2(CN(C(C)=O)C2)C1` [Example 32-15], the pIC50 was 7.31.

Regarding `CO[C@]1(c2cc3c(N[C@H](C)c4cccc(C(F)F)c4F)ncnc3n(C)c2=O)CCN(S(C)(=O)=O)C1` [Example 32-16], the pIC50 was 6.57. Same read-out and setting: with `CO[C@@]1(c2cc3c(N[C@H](C)c4cccc(C(F)F)c4F)ncnc3n(C)c2=O)CCN(S(C)(=O)=O)C1` [Example 32-17] the figure was 7.52; with `COC1(c2cc3c(N[C@H](C)c4cccc(C(F)F)c4F)ncnc3n(C)c2=O)C[C@@H]2C[C@H]1CN2C(C)=O` (some centres unmarked) [Example 32-18], 6.02. On the same count and under the same terms, under `CO[C@]1(c2cc3c(N[C@H](C)c4cccc(C(F)F)c4F)ncnc3n(C)c2=O)CCN(C(C)=O)C1` [Example 32-19] stands 7.95; under `COC1(c2cc3c(N[C@H](C)c4cccc(C(F)F)c4F)ncnc3n(C)c2=O)CC2(CCN(C(C)=O)C2)C1` (some centres unmarked) [Example 32-21], 6.41. Same read-out and setting: under `COC1(c2cc3c(N[C@H](C)c4cccc(C(F)F)c4F)ncnc3n(C)c2=O)C2CCC1CN(C(C)=O)C2` (some centres unmarked) [Example 32-22] stands 6.74.

With `CO[C@@]1(c2cc3c(N[C@H](C)c4cccc(C(F)F)c4F)ncnc3n(C)c2=O)CCN(C(C)=O)C1` [Example 32-23], the pIC50 was 7.28. With `COC1(c2cc3c(N[C@H](C)c4cccc(C(F)F)c4F)ncnc3n(C)c2=O)CCN(S(C)(=O)=O)CC1` [Example 32-24], the pIC50 was 7.16.

On to `COC1(c2cc3c(N[C@H](C)c4cccc(C(F)F)c4F)ncnc3n(C)c2=O)C2CC1CN(C(C)=O)C2` (some centres unmarked) [Example 32-25], for which the pIC50 was 5.84. The same measure, in the same setting: with `COC1(c2cc3c(N[C@H](C)c4cccc(C(F)F)c4F)nc(C)nc3n(C)c2=O)CC2(CN(C(C)=O)C2)C1` [Example 32-26] the figure was 7.38; with `C[C@@H](Nc1ncnc2c1cc(C1(OC3CC3)CCS(=O)(=O)CC1)c(=O)n2C)c1cccc(C(F)F)c1F` [Example 32-27], 7.06. Same read-out and setting: with `CO[C@@]1(c2cc3c(N[C@H](C)c4cccc(C(F)F)c4F)ncnc3n(C)c2=O)CCN(C(C)=O)[C@H](C)C1` [Example 32-28] the figure was 7.04; with `COC1(c2cc3c(N[C@H](C)c4cccc(C(F)F)c4F)ncnc3n(C)c2=O)CCN(C(C)=O)C(C)(C)C1` (some centres unmarked) [Example 32-29], 7.27. Same read-out and setting: with `CO[C@@]1(c2cc3c(N[C@H](C)c4cccc(C(F)F)c4F)ncnc3n(C)c2=O)CCN(C(C)=O)[C@@H](C)C1` [Example 32-30] the figure was 6.63. In the case of `CO[C@]1(c2cc3c(N[C@H](C)c4cccc(C(F)F)c4F)ncnc3n(C)c2=O)CCN(C(C)=O)[C@@H](C)C1` [Example 32-31], the pIC50 was 8.00. The same measure, in the same setting: under `COC1(c2cc3c(N[C@H](C)c4cccc(C(F)F)c4F)ncnc3n(C)c2=O)CCCS(=O)(=O)CC1` (some centres unmarked) [Example 32-33] stands 7.07; under `COC1(c2cc3c(N[C@H](C)c4cccc(C(F)F)c4F)ncnc3n(C)c2=O)CCC2CN(C(C)=O)CC21` (some centres unmarked) [Example 32-35], 6.61. For `COC1(c2cc3c(N[C@H](C)c4cccc(C(F)F)c4F)ncnc3n(C)c2=O)CC2CN(C(C)=O)C2C1` (some centres unmarked) [Example 32-36], the pIC50 is 7.03. Same read-out and setting: under `COC1(c2cc3c(N[C@H](C)c4cccc(C(F)F)c4F)ncnc3n(C)c2=O)C[C@@H](C)N(C(C)=O)C1` (some centres unmarked) [Example 32-37] stands 7.93; under `COC1(c2cc3c(N[C@H](C)c4cccc(C(F)F)c4F)ncnc3n(C)c2=O)C[C@H](C)N(C(C)=O)C1` (some centres unmarked) [Example 32-38], 6.76; under `COC1(c2cc3c(N[C@H](C)c4cccc(C(F)F)c4F)ncnc3n(C)c2=O)CCCN(C(C)=O)CC1` (some centres unmarked) [Example 32-39], 7.27. `CO[C@]1(c2cc3c(N[C@H](C)c4cccc(C(F)F)c4F)ncnc3n(C)c2=O)C[C@H](N(C)C(C)=O)C1` [Example 32-41]: the pIC50 is 6.34. As to `COC1(c2cc3c(N[C@H](C)c4cccc(C(F)F)c4F)ncnc3n(C)c2=O)CCN(C(C)=O)C2(CC2)C1` (some centres unmarked) [Example 32-42], the pIC50 is 6.45. On the same count and under the same terms, under `CC(=O)N1CCC(OC2CC2)(c2cc3c(N[C@H](C)c4cccc(C(F)F)c4F)ncnc3n(C)c2=O)CC1` [Example 32-44] stands 7.49; under `COC1(c2cc3c(N[C@H](C)c4cccc(C(F)F)c4F)ncnc3n(C)c2=O)CCP(C)(=O)CC1` (some centres unmarked) [Example 32-45], 6.60; under `CO[C@]1(c2cc3c(N[C@H](C)c4cccc(C(F)F)c4F)ncnc3n(C)c2=O)C[C@@H](C)N(C(C)=O)C1` [Example 32-47], 7.11. Same read-out and setting: with `CO[C@@]1(c2cc3c(N[C@H](C)c4cccc(C(F)F)c4F)ncnc3n(C)c2=O)C[C@@H](C)N(C(C)=O)C1` [Example 32-48] the figure was 8.27; with `CO[C@]1(c2cc3c(N[C@H](C)c4cccc(C(F)F)c4F)ncnc3n(C)c2=O)C[C@H](C)N(C(C)=O)C1` [Example 32-49], 6.99; with `CO[C@@]1(c2cc3c(N[C@H](C)c4cccc(C(F)F)c4F)ncnc3n(C)c2=O)C[C@H](C)N(C(C)=O)C1` [Example 32-50], 6.82.

Take `CO[C@]1(c2cc3c(N[C@H](C)c4cccc(C(F)F)c4F)ncnc3n(C)c2=O)CCN(C(C)=O)[C@H](C)C1` [Example 32-51]: the pIC50 is 8.24. Same read-out and setting: under `CO[C@]1(c2cc3c(N[C@H](C)c4cccc(C(F)F)c4F)ncnc3n(C)c2=O)CCN(C(C)=O)C(C)(C)C1` [Example 32-52] stands 7.74.

Regarding `CO[C@@]1(c2cc3c(N[C@H](C)c4cccc(C(F)F)c4F)ncnc3n(C)c2=O)CCN(C(C)=O)C(C)(C)C1` [Example 32-53], the pIC50 is 6.70. The same measure, in the same setting: under `COCCOC1(c2cc3c(N[C@H](C)c4cccc(C(F)F)c4F)ncnc3n(C)c2=O)CCS(=O)(=O)CC1` [Example 32-54] stands 7.40. Still for that read-out and setting: under `COC1(c2cc3c(N[C@H](C)c4cccc(C(F)F)c4F)ncnc3n(C)c2=O)CCNC1` (some centres unmarked) [Example 32-55] stands 7.09; under `COC1(c2cc3c(N[C@H](C)c4cccc(C(F)F)c4F)ncnc3n(C)c2=O)CCOCC1` [Example 32-56], 7.03.

Turning to `C[C@@H](Nc1ncnc2c1cc(C1(OC3COC3)CCS(=O)(=O)CC1)c(=O)n2C)c1cccc(C(F)F)c1F` [Example 32-57], the pIC50 is 7.08. On the same count and under the same terms, with `COC1(c2cc3c(N[C@H](C)c4cccc(C(F)F)c4F)nc(C)nc3n(C)c2=O)CCN(C(C)=O)C1` (some centres unmarked) [Example 32-58] the figure was 7.88; with `COC1(c2cc3c(N[C@H](C)c4cccc(C(F)F)c4F)ncnc3n(C)c2=O)CCC(S(C)(=O)=O)CC1` (some centres unmarked) [Example 32-59], 7.69. `COC1(c2cc3c(N[C@H](C)c4cccc(C(F)F)c4F)ncnc3n(C)c2=O)CCN(C=O)CC1` [Example 32-60]: the pIC50 is 7.68. Same read-out and setting: under `COC(=O)N1CCC(OC)(c2cc3c(N[C@H](C)c4cccc(C(F)F)c4F)ncnc3n(C)c2=O)CC1` [Example 32-61] stands 6.94.

The same test, now with this note: PC-9 cells (EGFR Ex19Del), 1 hour incubation, AlphaLISA SureFire Ultra p-ERK1/2; read-out: SOS1 pERK IC50.
With `COC1(c2cc3c(N[C@H](C)c4cccc(C(F)F)c4F)ncnc3n(C)c2=O)CCCS(=O)(=O)CC1` (some centres unmarked) [Example 32-34], the pIC50 was 7.15. Still for that read-out and setting: with `COC1(c2cc3c(N[C@H](C)c4cccc(C(F)F)c4F)ncnc3n(C)c2=O)CCN(C(C)=O)C2(CC2)C1` (some centres unmarked) [Example 32-43] the figure was 6.74. The same measure, in the same setting: with `COC1(c2cc3c(N[C@H](C)c4cccc(C(F)F)c4F)ncnc3n(C)c2=O)CCP(C)(=O)CC1` (some centres unmarked) [Example 32-46] the figure was 6.83.

As a reminder, the pIC50 is −log10 of the IC50, conventionally taken in molar units.
